According to patent US20240083857A1, “2-Methyl-Quinazolines” (Bayer Pharma Aktiengesellschaft, priority 2017, published 2024):

Legend:
[1] = biological target: K-Ras^G12C : hSOS1 interaction (Homo sapiens, UniProt Q07889); test: Biochemical assay 1: K-Ras^G12C interaction assay with hSOS1 (HTRF); type: binding; details: read-out: Assay 1 (KRAS-SOS Interaction) activity expressed as IC50
[2] = biological target: human SOS1 (nucleotide exchange of K-Ras^G12C) (Homo sapiens, UniProt Q07889); test: Biochemical assay 2: K-Ras^G12C activation assay by hSOS1 at high GTP concentration (HTRF); details: high GTP; read-out: Assay 2 (KRAS-Activation by SOS high GTP) activity expressed as IC50

Row | Structure (SMILES) | IC50 [1] [nM] | IC50 [2] [nM]
1 | COc1cc2nc(C)nc(N[C@H](C)c3cccc(-c4cn[nH]c4)c3)c2cc1OC(C)C [Example 353, 7-methoxy-2-methyl-6-(propan-2-yloxy)-N-{(1R)-1-[3-(1H-pyrazol-4-yl)phenyl]ethyl}quinazolin-4-amine] | 360 | 420
2 | COc1cc2nc(C)nc(N[C@H](C)c3cccc(-c4cn[nH]c4)c3)c2cc1OCC1COC1 [Example 354, 7-methoxy-2-methyl-6-(oxetan-3-ylmethoxy)-N-{(1R)-1-[3-(1H-pyrazol-4-yl)phenyl]ethyl}quinazolin-4-amine] | 313 | 516
3 | CCOc1cc2c(N[C@H](C)c3cccc(-c4cn[nH]c4)c3)nc(C)nc2cc1OC [Example 355, 6-Ethoxy-7-methoxy-2-methyl-N-{(1R)-1-[3-(1H-pyrazol-4-yl)phenyl]ethyl}-quinazolin-4-amine] | 485 | 571
4 | CCOc1cc2c(N[C@H](C)c3cccc(-c4cnn(CC)c4)c3)nc(C)nc2cc1OC [Example 356, 6-ethoxy-N-{(1R)-1-[3-(1-ethyl-1H-pyrazol-4-yl)phenyl]ethyl}-7-methoxy-2-methylquinazolin-4-amine] | 655 | 777
5 | COc1cc2nc(C)nc(NC(C)c3ccc(-c4ccccc4-c4cn[nH]c4)s3)c2cc1OC (centres unmarked) [Example 361, 6,7-dimethoxy-2-methyl-N-[1-{5-[2-(1H-pyrazol-4-yl)phenyl]thiophen-2-yl}ethyl]-quinazolin-4-amine] | 2460 | 4050
6 | Cc1nc(N[C@H](C)c2cccc(Cl)c2)c2cc(Br)ccc2n1 [Example 363, 6-bromo-N-[(1R)-1-(3-chlorophenyl)ethyl]-2-methylquinazolin-4-amine] | 12400 | 11300
7 | COc1cc2nc(C)nc(NC(C)c3ccc(-c4ccccc4CNC4CCCC4)s3)c2cc1OC (centres unmarked) [Example 364, N-[1-(5-{2-[(cyclopentylamino)methyl]phenyl}thiophen-2-yl)ethyl]-6,7-dimethoxy-2-methylquinazolin-4-amine] | 129 | 158
8 | COc1cc2nc(C)nc(NC(C)c3ccc(-c4ccccc4CNCc4ccccc4)s3)c2cc1OC (centres unmarked) [Example 365, N-[1-(5-{2-[(benzylamino)methyl]phenyl}thiophen-2-yl)ethyl]-6,7-dimethoxy-2-methylquinazolin-4-amine] | 469 | 299
9 | CCCCNCc1ccccc1-c1ccc(C(C)Nc2nc(C)nc3cc(OC)c(OC)cc23)s1 (centres unmarked) [Example 366, N-[1-(5-{2-[(butylamino)methyl]phenyl}thiophen-2-yl)ethyl]-6,7-dimethoxy-2-methylquinazolin-4-amine] | 97.6 | 96.9
10 | CCNCc1ccccc1-c1ccc(C(C)Nc2nc(C)nc3cc(OC)c(OC)cc23)s1 (centres unmarked) [Example 367, N-[1-(5-{2-[(ethylamino)methyl]phenyl}thiophen-2-yl)ethyl]-6,7-dimethoxy-2-methylquinazolin-4-amine] | 71.6 | 61.3
